As usually defined, the pEC50 is −log10 of the EC50, conventionally taken in molar units.

In patent US7763641B2, “Broadspectrum heterocyclic substituted phenyl containing sulfonamide HIV protease inhibitors” (Tibotec Pharmaceuticals Ltd., priority 2001, dated 2010) one finds pEC50 data, which are given here for 20 compounds.

For this assay, the system named is HIV-1 strain LAI. Nature of the assay: Cellular anti-HIV assay (MTT), wild type strain. The assay is classed as cell-based. The conditions noted are these: MT4 cells, five days, MTT; HIV-1 strain LAI; Tables 1-6. As to the method: The compounds of the present invention were examined for anti-viral activity in a cellular assay. […] The cellular assay was performed according to the following procedure.
In turn, `Cc1sc(N)nc1-c1ccc(S(=O)(=O)N(CC(C)C)CC(O)C(Cc2ccccc2)NC(=O)OC2COC3OCCC23)cc1` (centres unmarked) [Compound 7] came in with a pEC50 of 7.3.

`Cc1cccc(C)c1OCC(=O)N[C@@H](Cc1ccccc1)[C@H](O)CN(CC(C)C)S(=O)(=O)c1ccc(-c2csc(N)n2)cc1` [Compound 8] had a negative-log EC50 (pEC50) of 5.9.

`CNc1nc(-c2ccc(S(=O)(=O)N(CC(C)C)C[C@@H](O)[C@H](Cc3ccccc3)NC(=O)COc3c(C)cccc3C)cc2)cs1` [Compound 9]: the negative logarithm of the EC50 (pEC50) is 5.9.

Consider `CC(C)CN(C[C@@H](O)[C@H](Cc1ccccc1)NC(=O)OCc1cncs1)S(=O)(=O)c1ccc(-c2csc(Nc3ccncc3)n2)cc1` [Compound 10], for which the pEC50 is 5.5.

`Cc1cccc(C)c1OCC(=O)N[C@@H](Cc1ccccc1)[C@H](O)CN(CC(C)C)S(=O)(=O)c1ccc(-c2csc(Nc3ccncc3)n2)cc1` [Compound 11] displayed a pEC50 of 5.4.

The compound `CC(=O)Nc1nc(-c2ccc(S(=O)(=O)N(CC(C)C)C[C@@H](O)[C@H](Cc3ccccc3)NC(=O)COc3c(C)cccc3C)cc2)cs1` [Compound 12] gave a negative logarithm of the EC50 (pEC50) of 5.3.

`Cc1cc(Br)cc(C)c1OCC(=O)N[C@@H](Cc1ccccc1)[C@H](O)CN(CC(C)C)S(=O)(=O)c1ccc(-c2csc(N)n2)cc1` [Compound 13] came in with a negative logarithm of the EC50 (pEC50) of 5.3.

As for `CCNc1nc(-c2ccc(S(=O)(=O)N(CC(C)C)C[C@@H](O)[C@H](Cc3ccccc3)NC(=O)COc3c(C)cccc3C)cc2)cs1` [Compound 15], the pEC50 is listed as 5.3.

The compound `C=CCNc1nc(-c2ccc(S(=O)(=O)N(CC(C)C)C[C@@H](O)[C@H](Cc3ccccc3)NC(=O)COc3c(C)cccc3C)cc2)cs1` [Compound 16] yielded a pEC50 of 5.1.

The compound `CC(=O)Nc1nc(-c2ccc(S(=O)(=O)N(CC(C)C)C[C@@H](O)[C@H](Cc3ccccc3)NC(=O)COc3c(C)cc(Br)cc3C)cc2)cs1` [Compound 17] displayed a pEC50 of 4.2.

`C=CCNc1nc(-c2ccc(S(=O)(=O)N(CC(C)C)C[C@@H](O)[C@H](Cc3ccccc3)NC(=O)COc3c(C)cc(Br)cc3C)cc2)cs1` [Compound 18] gave a negative logarithm of the EC50 (pEC50) of 4.4.

In turn, `CCNc1nc(-c2ccc(S(=O)(=O)N(CC(C)C)C[C@@H](O)[C@H](Cc3ccccc3)NC(=O)COc3c(C)cc(Br)cc3C)cc2)cs1` [Compound 19] had a pEC50 of 4.6.

As to `Cc1cc(Br)cc(C)c1OCC(=O)N[C@@H](Cc1ccccc1)[C@H](O)CN(CC(C)C)S(=O)(=O)c1ccc(-c2csc(Nc3ccncc3)n2)cc1` [Compound 21], the negative logarithm of the EC50 (pEC50) amounted to 4.7.

In turn, `Cc1cccc(C)c1OCC(=O)N[C@@H](Cc1ccccc1)[C@H](O)CN(CC(C)C)S(=O)(=O)c1ccc(-c2ccnn2C)cc1` [Compound 25] came in with a pEC50 of 5.9.

`Cc1cccc(C)c1OCC(=O)N[C@@H](Cc1ccccc1)[C@H](O)CN(CC(C)C)S(=O)(=O)c1ccc(-c2ccnn2C(C)(C)C)cc1` [Compound 27] came in with a negative-log EC50 (pEC50) of 5.2.

The compound `Cc1cccc(C)c1OCC(=O)N[C@@H](Cc1ccccc1)[C@H](O)CN(CC(C)C)S(=O)(=O)c1ccc(-c2ccnn2Cc2ccccc2)cc1` [Compound 28] had a negative logarithm of the EC50 (pEC50) of 5.2.

`CCn1nccc1-c1ccc(S(=O)(=O)N(CC(C)C)C[C@@H](O)[C@H](Cc2ccccc2)NC(=O)COc2c(C)cccc2C)cc1` [Compound 29] came in with a negative logarithm of the EC50 (pEC50) of 5.2.

With `CCCn1nccc1-c1ccc(S(=O)(=O)N(CC(C)C)C[C@@H](O)[C@H](Cc2ccccc2)NC(=O)COc2c(C)cccc2C)cc1` [Compound 30], the pEC50 is on record as 5.0.

Regarding `Cc1nc(-c2ccc(S(=O)(=O)N(CC(C)C)CC(O)C(Cc3ccccc3)NC(=O)OC3COC4OCCC34)cc2)c[nH]1` (centres unmarked) [Compound 31], the pEC50 came to 7.6.

`CC(C)CN(CC(O)C(Cc1ccccc1)NC(=O)OC1COC2OCCC12)S(=O)(=O)c1ccc(-c2c[nH]c(N)n2)cc1` (centres unmarked) [Compound 34] gave a pEC50 of 6.2.
